The results in this text go back to the CheMixHub viscosity set.

Values joined by “and” are separate entries in the source; they are usually repeats but may differ in a detail not shown here. Identical values can stand only once. ± gives the uncertainty stated by the source.

In general, viscosity refers to the internal friction of a fluid under shear.

The compound `CCCCCCCCCCCC(=O)OCC` came in with a viscosity (293.15 K, 100 kPa) of 3.374 ± 0.074 mPa·s; a viscosity (293.15 K, 101.33 kPa) of 3.374 ± 0.14 mPa·s; a viscosity (303.15 K, 101.33 kPa) of 2.695 ± 0.031 mPa·s; a viscosity (308.15 K, 100 kPa) of 2.43 ± 0.053 mPa·s; a viscosity (308.15 K, 101.33 kPa) of 2.43 ± 0.1 mPa·s; a viscosity (313.15 K, 100 kPa) of 2.203 ± 0.048 mPa·s. Besides, the viscosity is, setting by setting: (313.15 K, 101.33 kPa) 2.203 ± 0.09 mPa·s and 2.045 ± 0.024 mPa·s; (323.15 K, 100 kPa) 1.827 ± 0.04 mPa·s; (323.15 K, 101.33 kPa) 1.827 ± 0.075 mPa·s.
Consider `CCCCCCCCCCN`, for which the viscosity (303.15 K, 101 kPa) was found to be 1.766 ± 0.019 mPa·s.
Consider `CCCN(CCC)CCC`, for which the viscosity runs as follows: (293.15 K, 101 kPa) 0.67 ± 0.009 mPa·s; (298.15 K, 101 kPa) 0.523 ± 0.006 mPa·s; (303.15 K, 101 kPa) 0.495 ± 0.005 mPa·s; (308.15 K, 101 kPa) 0.46 ± 0.01 mPa·s; (313.15 K, 101 kPa) 0.45 ± 0.01 mPa·s; (318.15 K, 101 kPa) 0.412 ± 0.004 mPa·s. For the same compound, for the setting “323.15 K, 101 kPa”, the viscosity turned out to be 0.38 ± 0.004 mPa·s.
For the compound `FC(F)(Cl)C(F)(F)Cl`, the viscosity by setting is: (293.35 K, 101 kPa) 0.3524 ± 0.0096 mPa·s; (313.05 K, 101 kPa) 0.2877 ± 0.0078 mPa·s.
For `CC1(C)OC1C#N` (stereo not given), the viscosity is, setting by setting: (293.15 K, 101 kPa) 1.337 ± 0.035 mPa·s; (298.15 K, 101 kPa) 1.223 ± 0.032 mPa·s; (303.15 K, 101 kPa) 1.1 ± 0.029 mPa·s; (313.15 K, 101 kPa) 0.938 ± 0.025 mPa·s; (323.15 K, 101 kPa) 0.79 ± 0.021 mPa·s.
`ClCCCCl` gave a viscosity (298.15 K, 101 kPa) of 0.9443 ± 0.008 mPa·s.
Consider `Clc1ccc(Cl)c(Cl)c1`, for which the viscosity is, setting by setting: (303.15 K, 101 kPa) 1.785 ± 0.011 mPa·s; (313.15 K, 100 kPa) 1.472 ± 0.012 mPa·s; (313.15 K, 101 kPa) 1.472 ± 0.031 mPa·s; (318.15 K, 100 kPa) 1.329 ± 0.012 mPa·s; (318.15 K, 101 kPa) 1.329 ± 0.028 mPa·s.
Regarding `CCCCCCCCCCBr`, the viscosity reads like this: (297.75 K, 101 kPa) 2.35 ± 0.051 mPa·s; (303.95 K, 101 kPa) 2.08 ± 0.045 mPa·s; (313.55 K, 101 kPa) 1.75 ± 0.038 mPa·s.
For `CCCCC(CC)COC(C)=O` (stereo not given), the viscosity reads like this: (293.15 K, 101.33 kPa) 1.471 ± 0.2 mPa·s; (303.15 K, 101.33 kPa) 1.234 ± 0.18 mPa·s; (313.15 K, 101.33 kPa) 1.051 ± 0.16 mPa·s; (323.15 K, 101.33 kPa) 0.906 ± 0.15 mPa·s.
Consider `CCCC(C)CO` (stereo not given), for which the viscosity (298.15 K, 101.33 kPa) was 5.304 ± 0.049 mPa·s and 5.304 ± 0.043 mPa·s.
`CCCC[NH3+].O=[N+]([O-])[O-]` returned a viscosity (298 K, 101 kPa) of 108.5 ± 4.4 mPa·s.
On to `CCN(CC)c1ccccc1`, for which the viscosity (298 K, 101 kPa) is on record as 1.919 ± 0.049 mPa·s; the viscosity (298 K, 101.3 kPa) worked out at 1.933 ± 0.051 mPa·s; the viscosity (298.15 K, 101 kPa) is 1.93 ± 0.12 mPa·s and 1.77 ± 0.05 mPa·s and 1.93 ± 0.051 mPa·s; the viscosity (303.15 K, 101 kPa) is 1.72 ± 0.04 mPa·s and 1.525 ± 0.04 mPa·s; the viscosity (308 K, 101 kPa) stood at 1.534 ± 0.04 mPa·s; the viscosity (308 K, 101.3 kPa) was 1.547 ± 0.041 mPa·s. The viscosity was 1.55 ± 0.03 mPa·s (308.15 K, 101 kPa); 1.41 ± 0.038 mPa·s (313 K, 101.3 kPa); 1.35 ± 0.04 mPa·s (313.15 K, 101 kPa); 1.274 ± 0.034 mPa·s (318.15 K, 101 kPa); 1.15 ± 0.08 mPa·s and 1.07 ± 0.03 mPa·s (323.15 K, 101 kPa).
Turning to `CCOC(=O)CC(=O)OCC`, the viscosity reads like this: (303.15 K, 101 kPa) 1.728 ± 0.037 mPa·s; (308.15 K, 101 kPa) 1.57 ± 0.034 mPa·s; (313.15 K, 101 kPa) 1.456 ± 0.031 mPa·s.
Compound `CCCCCCCC[P+](CC)(CC)CC.Cc1nc([N+](=O)[O-])c[n-]1` came in with a viscosity (293.15 K, 100 kPa) of 920 ± 57 mPa·s; a viscosity (298.15 K, 100 kPa) of 623 ± 33 mPa·s; a viscosity (303.15 K, 100 kPa) of 435 ± 20 mPa·s; a viscosity (308.15 K, 100 kPa) of 313 ± 12 mPa·s; a viscosity (313.15 K, 100 kPa) of 231 ± 8 mPa·s; a viscosity (318.15 K, 100 kPa) of 174 ± 5 mPa·s. This compound also registered a viscosity (323.15 K, 100 kPa) of 135 ± 3 mPa·s.
